Results reported in patent US20230340011A1 (Asteroid Therapeutics, priority 2022, published 2023).

How the values were obtained:
[1] = target: SREBP-2 (Homo sapiens (Human), UniProt Q12772); assay: In vitro assay SREBP-2: PathHunter U2OS SREBP-2 Nuclear Translocation Cell Line, U18666A-stimulated; type: cell-based; details: PathHunter U2OS SREBP-2 nuclear translocation cells, U18666A 10 μM, overnight (16 hours)
[2] = target: LXRβ (Homo sapiens (Human), UniProt P55055); assay: In vitro assay LXRβ: PathHunter NHR CHO cells, LXRβ / Steroid Receptor Co-activator Peptide enzyme fragment complementation; type: cell-based; details: PathHunter NHR CHO cells, full-length human LXRβ and SRCP, chemiluminescent signal; read-out: LXRβ PPI
In short: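 Enzyme fragment complementation read-out: CHO cells stably expressing ProLink-tagged full-length human LXRβ plus nuclear enzyme acceptor–SRCP fusion, seeded and held overnight at 37° C. Medium with charcoal-dextran filtered serum; final vehicle 1%. Chemiluminescence measured after signal generation.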

Chain of LXRβ (P55055 whole entry, the tested form may be a part): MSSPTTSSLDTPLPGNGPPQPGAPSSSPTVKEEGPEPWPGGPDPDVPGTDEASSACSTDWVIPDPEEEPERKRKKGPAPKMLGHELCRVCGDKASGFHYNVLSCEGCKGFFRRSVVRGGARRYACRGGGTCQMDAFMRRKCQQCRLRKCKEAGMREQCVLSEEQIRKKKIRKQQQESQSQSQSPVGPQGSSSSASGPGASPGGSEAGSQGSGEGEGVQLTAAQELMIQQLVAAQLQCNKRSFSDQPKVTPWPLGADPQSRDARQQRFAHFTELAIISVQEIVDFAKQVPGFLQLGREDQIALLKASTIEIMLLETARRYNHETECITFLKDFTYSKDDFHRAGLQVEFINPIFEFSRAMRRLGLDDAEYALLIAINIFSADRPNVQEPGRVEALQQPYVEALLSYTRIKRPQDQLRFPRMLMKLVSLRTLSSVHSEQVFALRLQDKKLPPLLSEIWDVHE

Row | Compound | IC50 [1] | EC50 [2]
1 | C[C@H](CCC(=O)N1CCC(O)(CC(F)F)CC1)[C@H]1CC[C@H]2[C@@H]3CC=C4C[C@@H](O)CC[C@]4(C)[C@H]3CC[C@]12C [Example 151, (4R)-4-[(1R,3aS,3bS,7S,9aR,9bS,11aR)-7-hydroxy-9a,11a-dimethyl-1H,2H,3H,3aH,3bH,4H,6H,7H,8H,9H,9aH,9bH,10H,11H,11aH-cyclopenta[a]phenanthren-1-yl]-1-[4-(2,2-difluoroethyl)-4-hydroxypiperidin-1-yl]pentan-1-one] | < 250 nM | < 250 nM
2 | C[C@@H]1CCN(C(=O)N2CCN(C(=O)CC[C@@H](C)[C@H]3CC[C@H]4[C@@H]5CC=C6C[C@@H](O)CC[C@]6(C)[C@H]5CC[C@]34C)CC2)C1 [Example 667, (R)-4-((3S,8S,9S,10R,13R,14S,17R)-3-hydroxy-10,13-dimethyl-2,3,4,7,8,9,10,11,12,13,14,15,16,17-tetradecahydro-1H-cyclopenta[a]phenanthren-17-yl)-1-(4-((R)-3-methylpyrrolidine-1-carbonyl)piperazin-1-yl)pentan-1-one] | < 250 nM | > 10000 nM
3 | C[C@H](CCC(=O)N1CCN(C(=O)c2ccncc2)C[C@@H]1C)[C@H]1CC[C@H]2[C@@H]3CC=C4C[C@@H](O)CC[C@]4(C)[C@H]3CC[C@]12C [Example 590, (R)-4-((3S,8S,9S,10R,13R,14S,17R)-3-hydroxy-10,13-dimethyl-2,3,4,7,8,9,10,11,12,13,14,15,16,17-tetradecahydro-1H-cyclopenta[a]phenanthren-17-yl)-1-((S)-4-isonicotinoyl-2-methylpiperazin-1-yl)pentan-1-one] | < 250 nM | > 10000 nM
4 | C[C@H](CC(=O)N1CCN(c2ccncn2)CC1)[C@H]1CC[C@H]2[C@@H]3CC=C4C[C@@H](O)CC[C@]4(C)[C@H]3CC[C@]12C [Example 595, (R)-3-((3S,8S,9S,10R,13R,14S,17R)-3-hydroxy-10,13-dimethyl-2,3,4,7,8,9,10,11,12,13,14,15,16,17-tetradecahydro-1H-cyclopenta[a]phenanthren-17-yl)-1-(4-(pyrimidin-4-yl)piperazin-1-yl)butan-1-one] | 1000 to 10000 nM | > 10000 nM
5 | COc1ccncc1N1CCN(C(=O)CC[C@@H](C)[C@H]2CC[C@H]3[C@@H]4CC=C5C[C@@H](O)CC[C@]5(C)[C@H]4CC[C@]23C)CC1 [Example 611, (R)-4-((3S,8S,9S,10R,13R,14S,17R)-3-hydroxy-10,13-dimethyl-2,3,4,7,8,9,10,11,12,13,14,15,16,17-tetradecahydro-1H-cyclopenta[a]phenanthren-17-yl)-1-(4-(4-methoxypyridin-3-yl)piperazin-1-yl)pentan-1-one] | < 250 nM | > 10000 nM
6 | C[C@H](CCC(=O)N(C)C)[C@H]1CC[C@H]2[C@@H]3C[C@@H](O)[C@H]4C[C@@H](O)CC[C@]4(C)[C@H]3CC[C@]12C [Example C1, (R)-4-((3S,5S,6R,8S,9S,10R,13R,14S,17R)-3,6-dihydroxy-10,13-dimethylhexadecahydro-1H-cyclopenta[a]phenanthren-17-yl)-N,N-dimethylpentanamide] | > 10000 nM | > 10000 nM
7 | CC(O)C1CCN(C(=O)CC[C@@H](C)[C@H]2CC[C@H]3[C@@H]4CC=C5C[C@@H](O)CC[C@]5(C)[C@H]4CC[C@]23C)CC1 (stereo partly drawn) [Example 377, (4R)-4-[(1R,3aS,3bS,7S,9aR,9bS,11aR)-7-hydroxy-9a,11a-dimethyl-1H,2H,3H,3aH,3bH,4H,6H,7H,8H,9H,9aH,9bH,10H,11H,11aH-cyclopenta[a]phenanthren-1-yl]-1-[4-(1-hydroxyethyl)piperidin-1-yl]pentan-1-one] | < 250 nM | 250 to 1000 nM
